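Where inhibition never reached the appropriate level, the endpoint shown equals the highest concentration tested. Otherwise, values were interpolated linearly from a five-concentration, 48-hour dose response in 96-well plates. GI50 = concentration required for 50% inhibition of growth.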 Calls of active or inactive are those of the source. Rule as the data show it: active = GI50 up to about 1.1 µM and inactive = higher.
What was measured:
Assay in all cases: NCI anticancer screen, dose series, 48 h
CCRF-CEM = system: CCRF-CEM
EKVX = system: EKVX
HCT-116 = system: HCT-116
HOP-92 = system: HOP-92
HT-29 = system: HT-29
Hs-578T = system: Hs-578T
K562 = system: K562
NCI-H522 = system: NCI-H522
NCI/ADR-RES = system: NCI/ADR-RES
OVCAR-3 = system: OVCAR-3
OVCAR-4 = system: OVCAR-4
OVCAR-5 = system: OVCAR-5
OVCAR-8 = system: OVCAR-8
PC-3 = system: PC-3
SF-295 = system: SF-295
SN12C = system: SN12C
SR = system: SR
TK-10 = system: TK-10
U-251 = system: U-251
UACC-62 = system: UACC-62

Measured: GI50

Cc1cc(C)c2c(SCc3ccc(Cl)cc3Cl)nc(N)nc2n1
inactive: CCRF-CEM > 100 µM | EKVX > 100 µM | HCT-116 27 µM | HOP-92 15.9 µM | HT-29 > 100 µM | Hs-578T 37.8 µM | K562 22.7 µM | NCI-H522 15.5 µM | NCI/ADR-RES > 100 µM | OVCAR-3 20.6 µM | OVCAR-4 > 100 µM | OVCAR-5 > 100 µM | OVCAR-8 28.9 µM | PC-3 35.6 µM | SF-295 > 100 µM | SN12C 21.2 µM | SR 33 µM | TK-10 17.6 µM | U-251 36.5 µM | UACC-62 > 100 µM

CC(C)/C(Cl)=N\OC(=O)Nc1ccc(F)c([N+](=O)[O-])c1
active: CCRF-CEM 0.902 µM | NCI-H522 0.792 µM
inactive: EKVX 11.7 µM | HCT-116 3.08 µM | HOP-92 2.22 µM | HT-29 15.9 µM | Hs-578T 12.1 µM | K562 2.87 µM | NCI/ADR-RES 18.4 µM | OVCAR-3 14.2 µM | OVCAR-4 4.07 µM | OVCAR-5 20.6 µM | OVCAR-8 5.52 µM | PC-3 18.1 µM | SF-295 19.1 µM | SN12C 5.83 µM | SR 5.65 µM | TK-10 6.22 µM | U-251 16.4 µM | UACC-62 17.6 µM

O=C1CC(c2cccc([N+](=O)[O-])c2)C2(C(=O)NC(=S)NC2=O)C(c2cccc([N+](=O)[O-])c2)C1 (stereo not given)
inactive: CCRF-CEM 27.6 µM | EKVX 20.4 µM | HCT-116 18.7 µM | HOP-92 28.2 µM | HT-29 40.9 µM | Hs-578T 22.8 µM | K562 52 µM | NCI-H522 30 µM | NCI/ADR-RES > 100 µM | OVCAR-3 35.2 µM | OVCAR-4 37.4 µM | OVCAR-5 39.9 µM | OVCAR-8 21.2 µM | PC-3 51.6 µM | SF-295 34 µM | SN12C 19.9 µM | SR 49.4 µM | TK-10 13.9 µM | U-251 26.2 µM | UACC-62 23.2 µM

Reference: ChEMBL document CHEMBL1201862, “PubChem BioAssay data set” (2004)
